Key:
[1] = biological target: T1, thrombin from human plasma (Homo sapiens, UniProt P00734); assay: Km-based 96-well formatted fluorogenic thrombin inhibition assay
[2] = biological target: T1, thrombin from human plasma; assay: Vmax-based thrombin inhibition assay (200 μM S-2238); type: biochemical; design: from tissue; host or cells: human plasma; conditions: 200 μM S-2238, 40 mU thrombin, pH 7.2, 25° C.
[3] = biological target: T1, thrombin from human plasma; assay: Km-based chromogenic thrombin inhibition assay (S-2238); type: biochemical; design: from tissue; host or cells: human plasma; conditions: 8 μM S-2238, 10 mU thrombin, pH 7.2, 35° C., 405 nm
Text: Specifically, a Km-based chromogenic assay was first employed. […] Measurements at 405 nm are designed to detect the thrombin-induced liberation of p-nitroaniline from the S-2238 substrate. As such, an observed increase in absorbance at 405 nm directly correlates with an increase in hydrolysis of the substrate by thrombin.

[4] = tested on: anti-KLH-argatroban antibody; assay: Sandwich ELISA using polyclonal anti-KLH-argatroban antibodies; type: binding, rabbit; conditions: rabbit erythrocytes treated with argatroban-C6 free acid
Method: The reaction was quenched by adding hydroxylamine, pH 7.8 to a final concentration of 50 mM and incubating at room temperature for 10 minutes.
Rabbit anti-HSA monoclonal antibody (Boehringer/Mannheim, catalog no. 605001) diluted 1:5000 in PBS, pH 7.4 or mouse anti-hGPA monoclonal antibody (BioAtlan-tic/CRTS, mAb 5F4, diluted to 10 μg/ml in 0.1 M sodium acetate, pH 4.5 or mAb 3C10 diluted 1:500 or mAb 3E4 diluted 1:1000 in PBS, pH 7.4 - each antibody recognizes a different epitope of hGPA), were used to capture respective proteins by aliquotting 100 μl/well into a NUNC Maxisorp F96 plate (catalog no. 439454). The plates were incubated overnight at 4° C., were then blocked by the addition of 200 μl/well of 1% BSA/PBS and incubated at room temperature for 1 hour. The plates were then washed 5 times by submersion in PBS, pH 7.4.
Samples were incubated on the plates for 2 hours at room temperature and then were washed as above.
The plates were then incubated at room temperature for 30 minutes and washed as above.
Biotinylated goat anti-rabbit IgG (Vector, catalog no. BA1000) was diluted 1:1000 in 1% BSA/PBS, pH 7.4 and 100 μl/well added to all wells. The plates were incubated at room temperature for 30 minutes and washed as above.
Next, 100 μl/well of ABC-HRP (Vector, catalog no. PK4000) was added, each component diluted 1:500 in PBS, pH 7.4, with 0.1% TWEEN 20 and incubated 30 minutes at room temperature prior to use. The plates were then washed 10 times by submersion in PBS, pH 7.4.

[5] = biological target: T1, thrombin from human plasma; assay: Km-based fluorogenic assay for inhibition of thrombin (Example 7); type: biochemical; design: from tissue; host or cells: human plasma; conditions: FIGS. 9 and 10
Method: Thrombin from human plasma was obtained from Enzyme System Products, Dublin, Calif., in glycerol:water 1:1, 11.4 mg/ml, 3800 U/mg, MW 36,700, and stored undiluted at -20° C. It was freshly diluted the day of use.
To dilute for the assay, 0.67 μl (25 Units) of thrombin was pipetted into 5 ml of 0.1 mg/ml BSA (from Pierce, Catalog No. 23209, BSA fraction V, a 2 mg/ml stock in saline with sodium azide), in cold PBS (GIBCO, Catalog No. 14190-136, without calcium chloride and magnesium chloride, pH 7.2) and briefly vortexed, yielding a stock of 5 mU thrombin/μl.
The substrate was N-tBOC-β-Benzyl-Asp-Pro-Arg-7-Amido4-Methylcoumarin HCl and was obtained from Sigma, Catalog No. B4028, Lot 122H0070, F.W. 770.3. Five mg was dissolved in […] DMSO for a 4 mM stock. The stock was stored in 200 μl aliquots at -20° C. in the dark.
An alternative substrate was N-tBOC-Val-Pro-Arg-7-Amido4-Methylcoumarin HCl and was obtained from Sigma, Catalog No. B-9385, Lot 53H0805, F.W. of free base 627.7. Five mg was dissolved in 1.863 ml DMSO for a 4 mM stock. The stock was stored in 200 μl aliquots at -20° C. in the dark.
The fluorescent standard was 7-Amido4-Methylcoumarin and was obtained from Aldrich, Catalog No. 25,737-0, MW 175.19. […]
Initial readings were taken to ensure exclusion of rogue wells with abnormally high backgrounds (λ excitation at 360 nm, bandwidth […], λ emission, 460 nm, bandwidth 40 nm). Then, 25 μl of a 10×stock of the putative inhibitor were added per well, mixed for 5 seconds and read kinetically for 10 minutes at ambient temperature to assess background interference and/or any increase in hydrolysis of substrate due to inhibitor.
The thrombin assay was then initiated by adding 25 μl of thrombin/well with a multichannel pipettor and mixed for 5 seconds. The appearence of the fluorescent product (free 7-amido-4-methylcoumarin released from the peptide by thrombin) was followed simultaneously in 48 wells (one reading per minute for 30 minutes, λ excitation at 360 nm, bandwidth 40 nm, λ emission, 460 nm, bandwidth 40 nm). […]

SMILES	IC50 [1] [nM]	IC50 [2] [nM]	IC50 [3] [nM]	plate ELISA signal [4]	thrombin inhibition [5]
CC1CNc2c(cccc2S(=O)(=O)NC(CCCNC(=N)N)C(=O)N2CCC(C)CC2C(=O)NCCCCCCCCCCCC(=O)O)C1 (stereo not drawn) [compound YL-015-10]	~80	5000 to 8000	150		
CC1CNc2c(cccc2S(=O)(=O)NC(CCCN=C(N)N)C(=O)N2CCC(C)CC2C(=O)NCCCCCC(=O)O)C1 (stereo not drawn) [compound YL-015-15]	~50			did not give a signal above background	not inhibitory
